The structures appear in SMILES notation. Where a name gives a salt, the structure may show the parent alone. Read-outs that look alike come from different tables or passages of the source. Where only a bound is given, the exact number is not on record here.

The series in a line: Solubility in water of salts (and free bases). It is filed as physicochemical. The following applies: for solubility: water; for solubility in water, in words: categories of the Deutsches Arzneibuch.
[1] abbreviates: Table 2, salts of compounds I, temp. by No. [°C]: 1 25.5, 2 23.0, 3 22.4, 4 22.4, 5 22.0, 6 25.0, 7 25.5, 8 25.5, 9 25.5, 10 23.5, 11 23.5, 12 25.0, 13 24.0, 14 23.0, 15 22.0, 16 24.5, 17 22.5, 18 22.0, nitrate.
Where [2] appears, read: Table 1, N-H analogs, temp. by No. [°C]: 1 25.0, 2 23.0, 3 26.2, 4 25.1, 5 25.2, 6 24.1, 7 24.5, 8 24.2, 9 24.2, 10 25.7, 11 25.8.
The mark [3] stands for this setting: Table 2, salts of compounds I, temp. by No. [°C]: 1 25.5, 2 23.0, 3 22.4, 4 22.4, 5 22.0, 6 25.0, 7 25.5, 8 25.5, 9 25.5, 10 23.5, 11 23.5, 12 25.0, 13 24.0, 14 23.0, 15 22.0, 16 24.5, 17 22.5, 18 22.0.
The mark [4] stands for this setting: Table 2, salts of compounds I, temp. by No. [°C]: 1 25.5, 2 23.0, 3 22.4, 4 22.4, 5 22.0, 6 25.0, 7 25.5, 8 25.5, 9 25.5, 10 23.5, 11 23.5, 12 25.0, 13 24.0, 14 23.0, 15 22.0, 16 24.5, 17 22.5, 18 22.0, read-out: Solubility in water, Concentration in % by wt.
[5] abbreviates: Table 1, N-H analogs, temp. by No. [°C]: 1 25.0, 2 23.0, 3 26.2, 4 25.1, 5 25.2, 6 24.1, 7 24.5, 8 24.2, 9 24.2, 10 25.7, 11 25.8, read-out: Solubility in water, Concentration in % by wt.
The mark [6] stands for this setting: Table 1, N-H analogs, temp. by No. [°C]: 1 25.0, 2 23.0, 3 26.2, 4 25.1, 5 25.2, 6 24.1, 7 24.5, 8 24.2, 9 24.2, 10 25.7, 11 25.8, read-out: Solubility in water, Molarity × 10^-3.

With `CCN(C(=O)c1cnc(N2CC(C)(C)NC2=O)nc1N)c1cc(C(F)(F)F)ccc1F` [Example 60, 4-amino-2-(4,4-dimethyl-2-oxo-1-imidazolidinyl)pyrimidine-5-carboxylic acid N-ethyl-N-(2-fluoro-5-trifluoromethylphenyl)amide nitrate], under setting [1], the “1 part by mass dissolves in ... parts by H2O” value (from here on “1 part … by H2O”) is 57.5 parts by H2 O and the “Solubility in water, Concentration in % by wt.” value amounted to 1.71 % by wt. Moreover, the solubility (temperature not stated, read-out: soluble in a concentration in water) was found to be 17 mg/mL.

Take `CC1(C)CN(c2ncc(C(=O)Nc3cccc(C(F)(F)F)c3)c(N)n2)C(=O)N1` [No. 2 (Table 1), reference compound]: under setting [2], the “Solubility in water, Molarity × 10^-3” value was determined as 0.90 Molarity × 10^-3.

Regarding `CCCCCN(C(=O)c1cnc(N2CC(C)(C)NC2=O)nc1N)c1cccc(C(F)(F)F)c1` [Example 47, 4-amino-2-(4,4-dimethyl-2-oxo-1-imidazolidinyl)pyrimidine-5-carboxylic acid N-pentyl-N-(3-trifluoromethylphenyl)amide hydrochloride], the “1 part … by H2O” value under setting [3] was found to be 51.3 parts by H2 O. Further, the solubility under setting [4] came to 18.7 mg/mL.

As to `CC1(C)CN(c2ncc(C(=O)Nc3ccc(F)c(C(F)(F)F)c3)c(N)n2)C(=O)N1` [No. 3 (Table 1), reference compound], the “1 part by mass dissolves in ... parts of H2O” value (“1 part … of H2O” below) under setting [2] is recorded as 703 parts of H2 O. The solubility runs as follows: under setting [5], 1.4 mg/mL; under setting [6], 3.17 mM.

In the case of `CC(C)CC(C)N(C(=O)c1cnc(N2CC(C)(C)NC2=O)nc1N)c1cccc(C(F)(F)F)c1` (centres unmarked) [Example 38], under setting [3], the “1 part … by H2O” value amounted to 15.3 parts by H2 O. In addition, the solubility under setting [4] worked out at 61.3 mg/mL.

As to `CC1(C)CN(c2ncc(C(=O)N(CC3CC3)c3cccc(C(F)(F)F)c3)c(N)n2)C(=O)N1` [No. 9 (Table 2)], under setting [3], the “1 part … by H2O” value turned out to be 13.1 parts by H2 O. Also, the solubility under setting [4] worked out at 71.1 mg/mL.

As for `CC1(C)CN(c2ncc(C(=O)Nc3ccc(Cl)c(C(F)(F)F)c3)c(N)n2)C(=O)N1` [No. 5 (Table 1), reference compound], the solubility turned out to be 1 mg/mL under setting [5] and 2.03 mM under setting [6].

Take `CC(C)N(C(=O)c1cnc(N2CC(C)(C)NC2=O)nc1N)c1cccc(C(F)(F)F)c1` [Example 3, 4-amino-2-(4,4-dimethyl-2-oxo-1-imidazolidinyl)pyrimidine-5-carboxylic acid N-isopropyl-N-(3-trifluoromethylphenyl)amide]: under setting [3], the “1 part … by H2O” value was 24.7 parts by H2 O. For the same compound, the solubility under setting [4] stood at 38.9 mg/mL.

Take `CCCC1(C)CN(c2ncc(C(=O)Nc3ccc(Cl)c(C(F)(F)F)c3)c(N)n2)C(=O)N1` (centres unmarked) [No. 9 (Table 1), reference compound]: the solubility reads like this: under setting [5], 1.3 mg/mL; under setting [6], 2.8 mM.

As for `CC1(C)CN(c2ncc(C(=O)Nc3cccc(C(F)(F)F)c3)c(N)n2)C(=O)N1` [No. 1 (Table 1), hydrochloride of 4-amino-2-(4,4-dimethylimidazolidin-2-on-1-yl)pyrimidine-5-carboxylic acid N-(3-trifluoromethylphenyl)amide, reference compound], the solubility runs as follows: (23° C., read-out: 1 part by mass dissolves in parts of water (converted)) 0.4 mg/mL; (23° C., read-out: solution that can be prepared in water) 0.93 mM; under setting [5], 0.4 mg/mL; under setting [6], 0.93 mM.

Take `C=CC1CN(c2ncc(C(=O)N(C)c3cccc(C(F)(F)F)c3)c(N)n2)C(=O)N1` (centres unmarked) [Example 72, 4-amino-2-(4-vinyl-2-oxo-1-imidazolidinyl)pyrimidine-5-carboxylic acid N-methyl-N-(3-trifluoromethylphenyl)amide hydrochloride]: under setting [3], the “1 part … by H2O” value was less than 9 parts by H2 O. Under setting [4], the solubility is more than 100 mg/mL.

As to `CC1(C)CN(c2ncc(C(=O)Nc3cc(C(F)(F)F)ccc3Cl)c(N)n2)C(=O)N1` [No. 4 (Table 1), reference compound], under setting [2], the “1 part … of H2O” value is reported as 217 parts of H2 O. Further, the solubility is, setting by setting: under setting [5], 4.6 mg/mL; under setting [6], 9.91 mM.

With `CC1(C)CN(c2ncc(C(=O)Nc3cccc(C(F)(F)F)c3)c(N)n2)C(=O)N1` [4-amino-2-(4,4-dimethylimidazolidin-2-on-1-yl)pyrimidine-5-carboxylic acid N-(3-trifluoromethylphenyl)amide, reference compound], the “solubility in water, in words” value is “exceptionally slightly soluble”.

`COc1ccc(NC(=O)c2cnc(N3CC(C)(C)NC3=O)nc2N)cc1C(F)(F)F` [No. 7 (Table 1), reference compound]: the “1 part … of H2O” value under setting [2] is 554 parts of H2 O. In addition, the solubility runs as follows: under setting [5], 1.8 mg/mL; under setting [6], 3.92 mM.

Consider `CCN(C(=O)c1cnc(N2CC(C)(C)NC2=O)nc1N)c1cccc(C(F)(F)F)c1` [Example 1, 4-amino-2-(4,4-dimethyl-2-oxo-1-imidazolidinyl)pyrimidine-5-carboxylic acid N-ethyl-N-(3-trifluoromethylphenyl)amide], for which the “1 part … by H2O” value under setting [3] is 13.5 parts by H2 O. For the same compound, under setting [4], the solubility worked out at 68.9 mg/mL.

Take `COc1ccc(C(F)(F)F)cc1NC(=O)c1cnc(N2CC(C)(C)NC2=O)nc1N` [No. 6 (Table 1), reference compound]: the “solubility in water, in words” value is on record as “sparingly soluble”. Also, the “1 part … of H2O” value under setting [2] is 75 parts of H2 O. Besides, the solubility under setting [5] stood at 13.2 mg/mL. In addition, the solubility under setting [6] was 28.9 mM.

With `CC1(C)CN(c2ncc(C(=O)N(CC3CC3)c3cc(C(F)(F)F)ccc3F)c(N)n2)C(=O)N1` [Example 61, 4-amino-2-(4,4-dimethyl-2-oxo-1-imidazolidinyl)pyrimidine-5-carboxylic acid N-cyclopropylmethyl-N-(2-fluoro-5-trifluoromethylphenyl)amide], the “1 part … by H2O” value under setting [3] is 65.8 parts by H2 O. The solubility under setting [4] was 15 mg/mL.

For `CCCC1(C)CN(c2ncc(C(=O)Nc3cccc(C(F)(F)F)c3)c(N)n2)C(=O)N1` (centres unmarked) [No. 10 (Table 1), reference compound], under setting [2], the “1 part … of H2O” value is listed as 255 parts of H2 O. The solubility was 3.9 mg/mL under setting [5] and 8.54 mM under setting [6].

As for `CC1NC(=O)N(c2ncc(C(=O)Nc3cccc(C(F)(F)F)c3)c(N)n2)C1C` (centres unmarked) [No. 11 (Table 1), reference compound], under setting [2], the “1 part … of H2O” value is 277 parts of H2 O. Besides, the solubility under setting [5] is 3.6 mg/mL and the solubility under setting [6] came out at 8.38 mM.

Consider `CC(C)CN(C(=O)c1cnc(N2CC(C)NC2=O)nc1N)c1cccc(C(F)(F)F)c1` (centres unmarked) [Example 114], for which, under setting [3], the “1 part … by H2O” value turned out to be 24.7 parts by H2 O. The solubility under setting [4] was 38.9 mg/mL.

On to `CC1(C)CN(c2ncc(C(=O)N(c3cccc(C(F)(F)F)c3)C3CCCC3)c(N)n2)C(=O)N1` [No. 8 (Table 2)], for which the “1 part … by H2O” value under setting [3] is given as 60.6 parts by H2 O. Moreover, the solubility under setting [4] was determined as 16.2 mg/mL.

`CCCC1(C)CN(c2ncc(C(=O)Nc3cc(C(F)(F)F)ccc3Cl)c(N)n2)C(=O)N1` (centres unmarked) [No. 8 (Table 1), reference compound]: the “1 part … of H2O” value under setting [2] is given as 781 parts of H2 O. Besides, the solubility runs as follows: under setting [5], 1.3 mg/mL; under setting [6], 2.59 mM.
